Converted amounts (≈) assume the structure as drawn. Where two headings read alike, the source gives them in different places. Where a SMILES comes first, the peptide text is derived from it. Bridges are numbered along the chain shown (N, C = ends). Roman numbers before positions name the chains, in order. The star is where a group is joined. Palmitoyl = CCCCCCCCCCCCCCCC(=O)*; Myristoyl = CCCCCCCCCCCCCC(=O)*; Lauroyl = CCCCCCCCCCCC(=O)*
Key:
[1] = RP-HPLC retention to evaluate the hydrophobicity of lipopeptides; format: physicochemical; conditions: chromatographic, Luna C18(2) 3.0 × 100 mm, 5.0 µm, linear 20–80% acetonitrile in water over 10 min, 0.1% formic acid, 0.5 mL/min, UV 214 nm, used to evaluate hydrophobicity
Protocol: The crude peptide was lyophilized and subsequently purified by RP-HPLC. The purifications were carried out on a Phenomenex Gemini-NX C18 column (21.20 × 100 mm, 5.0 µm particle size, and 110 Å pore size). Acetonitrile and water, both containing 0.1% of TFA, were used as the mobile phase. UV detection at 214 nm was used. The crude peptides were eluted with a linear 20–80% acetonitrile gradient in deionized water over 60 min at a flow rate of 10.0 mL/min. The purity and identity of the peptides were confirmed with LC-MS analysis. A Waters Alliance e2695 RP-HPLC system (Waters, Milford, MA, USA) with Waters 2998 PDA (Waters, Milford, MA, USA) and Acquity QDA detectors (Empower®3 software, Database Version 7.21.00.00) was used. All analyses were carried out on a Phenomenex, Luna C18(2) column (3.0 × 100 mm, 5.0 µm particle size, 100 Å pore size). The samples were analyzed with a linear 20–80% acetonitrile gradient in deionized water over 10 min at a flow rate of 0.5 mL/min with UV detection at 214 nm. Both eluents contained 0.1% (v/v) of formic acid. The pure fractions (>95%, by HPLC analysis) were collected and lyophilized. The retention time and percentage of ACN (%) at which each peptide was eluted are included in Table 1 to evaluate the hydrophobicity of lipopeptides. The identity of all compounds was confirmed using mass spectrometry (Waters Alliance e2695 system with Acquity QDA detector, Waters, Milford, MA, USA) with electrospray ionization in positive ion mode (ESI-MS). In this mode, a proton is attached to basic moieties (amine groups, guanidine groups). The theoretical mass of the peptide was calculated and then expected ions (m/z—mass to charge ratio) were compared to measured m/z. The results are presented in Table 1, and mass spectra are presented in the Supplementary Materials.

[2] = tested on: Enterococcus faecalis ATCC 29212; format: cell-based
Protocol: (§1) The reference strains of gram-positive and gram-negative bacteria (Table 2) were obtained from the Polish Collection of Microorganisms (Polish Academy of Science, Wroclaw, Poland). The microorganisms were cultured in Muller Hinton Broth II (MHB II, Biocorp, Warsaw, Poland), overnight, at 37 °C. The MICs of synthetic lipopeptides and conventional antimicrobials were determined using the broth microdilution method according to the Clinical and Laboratory Standard Institute (CLSI) guidelines on reference strains. […] The PS were incubated under aerobic conditions at 37 °C for 18 h. The MIC (μg/mL) was assumed as the lowest concentration of the compound that inhibited the growth of the microorganisms. All experiments were performed in triplicate and included the growth and sterility controls.

[3] = tested on: Escherichia coli ATCC 25922; format: cell-based
Protocol: as §1

[4] = tested on: Pseudomonas aeruginosa ATCC 9027; format: cell-based
Protocol: as §1

[5] = tested on: Staphylococcus aureus ATCC 25923; format: cell-based
Protocol: as §1

[6] = tested on: Staphylococcus epidermidis ATCC 14990; format: cell-based
Protocol: as §1

[7] = tested on: Enterococcus faecalis ATCC 29212; format: cell-based; remark: listed apart in the source
Protocol: (§2) The biofilms of bacteria associated with the biofilm-related infections were cultured on 96-well flat bottom PS and on CL placed in 24-well plates. The bacteria at initial inoculums of 5 × 10^8 CFU/mL in MHB II were added to the plates and incubated at 37 °C under aerobic conditions. After 24 h of incubation, all cultures were rinsed three times with PBS and fresh medium was added. Subsequently, the obtained biofilm cultures were exposed to solutions of antimicrobials applied at graded concentrations ranging from 1 to 512 μg/mL for 24 h at 37 °C. The anti-biofilm activity of antimicrobials was visualized by resazurin (final concentration per sample = 0.005%) in the same way as in the MBFIC assay. All experiments were performed in triplicate and included growth controls (positive control: bacterial suspension without antimicrobials) and sterility controls (negative controls: sterile MBH II medium).

[8] = tested on: Escherichia coli ATCC 25922; format: cell-based; remark: listed apart in the source
Protocol: as §2

[9] = tested on: Proteus mirabilis PCM 543; format: cell-based
Protocol: as §2

[10] = tested on: Pseudomonas aeruginosa ATCC 9027; format: cell-based; remark: listed apart in the source
Protocol: as §2

[11] = tested on: Staphylococcus aureus ATCC 25923; format: cell-based; remark: listed apart in the source
Protocol: as §2

[12] = tested on: Staphylococcus epidermidis ATCC 14990; format: cell-based; remark: listed apart in the source
Protocol: as §2

[13] = tested on: Proteus mirabilis PCM 543; format: cell-based; remark: listed apart in the source
Protocol: as §1

[14] = MHB II, ca. 5 × 10^6 CFU/mL, 96-well PS, 1–512 μg/mL, 37 °C, 18 h, triplicate
[15] = 24 h biofilm on 96-well flat bottom PS, 5 × 10^8 CFU/mL in MHB II, exposure 1–512 μg/mL for 24 h at 37 °C, resazurin, triplicate
[16] = 24 h biofilm on contact lenses (CL) in 24-well plates, 5 × 10^8 CFU/mL in MHB II, exposure 1–512 μg/mL for 24 h at 37 °C, resazurin, triplicate

Compound	% ACN at which the peptide was eluted [1]	tR' (adjusted retention time) [1]	MIC E. faecalis ([2]; ATCC 29212, 18 h)	MIC E. coli ([3]; ATCC 25922, 18 h)	MIC P. aeruginosa ([4]; ATCC 9027, 18 h)	MIC S. aureus ([5]; ATCC 25923, 18 h)	MIC S. epidermidis ([6]; ATCC 14990, 18 h)	MBEC E. faecalis, CL ([7]; ATCC 29212, 24 h)	MBEC E. coli, CL ([8]; ATCC 25922, 24 h)	MBEC P. mirabilis, CL ([9]; PCM 543, 24 h)	MBEC P. aeruginosa, CL ([10]; ATCC 9027, 24 h)	MBEC S. aureus, CL ([11]; ATCC 25923, 24 h)	MBEC S. epidermidis, CL ([12]; ATCC 14990, 24 h)	MIC P. mirabilis ([13]; PCM 543, 18 h)	also measured
CCCCCCCCCCCC(=O)N[C@@H](CCCCN)C(=O)N[C@@H](CCCCN)C(=O)N[C@@H](CSSC[C@H](NC(=O)[C@H](CCCCN)NC(=O)[C@H](CCCCN)NC(=O)CCCCCCCCCCC)C(N)=O)C(N)=O [Lipopeptide 1, C12-KKC-NH2] (I: Lauroyl-Lys-Lys-Cys-NH2 / II: Lauroyl-Lys-Lys-Cys-NH2; disulfide I:3-II:3)	38.6%	3.10 min	4 µg/mL (≈ 3.59 µM)	16 µg/mL (≈ 14.3 µM)	32 µg/mL (≈ 28.7 µM)	8 µg/mL (≈ 7.17 µM)	2 µg/mL (≈ 1.79 µM)	128 µg/mL	256/256 μg/mL	>512/>512 μg/mL	256 µg/mL	256 µg/mL	128 µg/mL	–	–
CCCCCCCCCCCCCC(=O)N[C@@H](CCCCN)C(=O)N[C@@H](CCCCN)C(=O)N[C@@H](CSSC[C@H](NC(=O)[C@H](CCCCN)NC(=O)[C@H](CCCCN)NC(=O)CCCCCCCCCCCCC)C(N)=O)C(N)=O [Lipopeptide 3, C14-KKC-NH2] (I: Myristoyl-Lys-Lys-Cys-NH2 / II: Myristoyl-Lys-Lys-Cys-NH2; disulfide I:3-II:3)	43.3%	3.88 min	16 µg/mL (≈ 13.7 µM)	64 µg/mL (≈ 54.6 µM)	128 µg/mL (≈ 109 µM)	32 µg/mL (≈ 27.3 µM)	4 µg/mL (≈ 3.41 µM)	256/256 μg/mL	512/512 μg/mL	512/>512 μg/mL	> 512 µg/mL	128/128 μg/mL	512 µg/mL	512 µg/mL (≈ 437 µM)	–
CCCCCCCCCCCCCC(=O)N[C@@H](CCCCN)C(=O)N[C@@H](CCCNC(=N)N)C(N)=O [Lipopeptide 4, C14-KR-NH2] (Myristoyl-Lys-Arg-NH2)	39.7%	3.29 min	32 µg/mL (≈ 62.5 µM)	32 µg/mL (≈ 62.5 µM)	128 µg/mL (≈ 250 µM)	32 µg/mL (≈ 62.5 µM)	4 µg/mL (≈ 7.82 µM)	256 µg/mL	256 µg/mL	>512/>512 μg/mL	>512/>512 μg/mL	512 µg/mL	32 µg/mL	512 µg/mL (≈ 1000 µM)	–
CCCCCCCCCCCCCCCC(=O)N[C@@H](CCCCN)C(=O)NCC(=O)N[C@@H](CCCCN)C(N)=O [Lipopeptide 5, C16-KGK-NH2] (Palmitoyl-Lys-Gly-Lys-NH2)	43.7%	3.95 min	32 µg/mL (≈ 56.3 µM)	16 µg/mL (≈ 28.1 µM)	256 µg/mL (≈ 450 µM)	64 µg/mL (≈ 113 µM)	32 µg/mL (≈ 56.3 µM)	32 µg/mL	64 µg/mL	>512/>512 μg/mL	256 µg/mL	512 µg/mL	128 µg/mL	512 µg/mL (≈ 900 µM)	concentrations eliminating the EC biofilm (MBEC range) ([8]; ATCC 25922, 24 h): 64 to 128 µg/mL
CCCCCCCCCCCCCCCC(=O)N[C@@H](CCCCN)C(=O)N[C@@H](CCCCN)C(=O)N[C@@H](CCCCN)C(N)=O [Lipopeptide 7, C16-KKK-NH2]	37.9%	2.98 min	16 µg/mL (≈ 25 µM)	32 µg/mL (≈ 50 µM)	64 µg/mL (≈ 100 µM)	64 µg/mL (≈ 100 µM)	16 µg/mL (≈ 25 µM)	16 µg/mL	128 µg/mL	512/>512 μg/mL	512/>512 μg/mL	256 µg/mL	64 µg/mL	256 µg/mL (≈ 400 µM)	concentrations eliminating the EC biofilm (MBEC range) ([8]; ATCC 25922, 24 h): 64 to 128 µg/mL
CCCCCCCCCCCCCCCC(=O)N[C@@H](CCCCN)C(=O)N[C@@H](CCCNC(=N)N)C(N)=O [Lipopeptide 8, C16-KR-NH2] (Palmitoyl-Lys-Arg-NH2)	44.3%	4.06 min	64 µg/mL (≈ 119 µM)	64 µg/mL (≈ 119 µM)	128 µg/mL (≈ 237 µM)	32 µg/mL (≈ 59.3 µM)	8 µg/mL (≈ 14.8 µM)	64/64 μg/mL	128 µg/mL	> 512 µg/mL	32 µg/mL	128 µg/mL	32 µg/mL	512 µg/mL (≈ 948 µM)	–
(C10)2-KKKK-NH2 [Lipopeptide 9]	39.6%	3.27 min	–	–	–	–	–	–	–	–	–	–	–	–	MIC E. faecalis [2, 14]: 16 µg/mL; MIC E. coli [3, 14]: 16 µg/mL; MIC P. mirabilis [13, 14]: 512 µg/mL; MIC P. aeruginosa [4, 14]: 16 µg/mL; MIC S. aureus [5, 14]: 8 µg/mL; MIC S. epidermidis [6, 14]: 2 µg/mL; MBEC E. faecalis, PS [7, 15]: 32 µg/mL; MBEC E. faecalis, CL [7, 16]: 128 µg/mL; MBEC E. coli, PS [8, 15]: 64 µg/mL; MBEC E. coli, CL [8, 16]: 128 µg/mL; concentrations eliminating the EC biofilm (MBEC range) ([8]; range over PS and CL): 64 to 128 µg/mL; MBEC P. mirabilis, PS [9, 15]: >512/>512 μg/mL; MBEC P. mirabilis, CL [9, 16]: >512/>512 μg/mL; MBEC P. aeruginosa, PS [10, 15]: 512 µg/mL; MBEC P. aeruginosa, CL [10, 16]: 256 µg/mL; MBEC S. aureus, PS [11, 15]: 64 µg/mL; MBEC S. aureus, CL [11, 16]: 128 µg/mL; MBEC S. epidermidis, PS [12, 15]: 16 µg/mL; MBEC S. epidermidis, CL [12, 16]: 64 µg/mL

Source: PMC6835763, “Influence of Short Cationic Lipopeptides with Fatty Acids of Different Chain Lengths on Bacterial Biofilms Formed on Polystyrene and Hydrogel Surfaces” (Pharmaceutics, 2019)
